Reference: US8299048B2, “Hexahydrocyclopentyl[f]indazole sulfonamides and derivatives thereof as selective glucocorticoid receptor modulators” (Merck Sharp & Dohme Corp., priority 2008, dated 2012)

How the values were obtained:
[1] = target: T1, human GR (Homo sapiens, UniProt P04150); test: Trans-Activation Modulation of Glucocorticoid Receptor (GRAMMER), MMTV-LUC reporter, agonist mode; type: cell-based; parameters: endogenous in cells; settings: for Emax: A549, A549 cells, maximum activity, read-out: Transactivation A549 Cells GRAMMER Emax; for EC50: A549 cells, inflection point, read-out: Transactivation A549 Cells GRAMMER IP
T1 sequence (P04150 1-777): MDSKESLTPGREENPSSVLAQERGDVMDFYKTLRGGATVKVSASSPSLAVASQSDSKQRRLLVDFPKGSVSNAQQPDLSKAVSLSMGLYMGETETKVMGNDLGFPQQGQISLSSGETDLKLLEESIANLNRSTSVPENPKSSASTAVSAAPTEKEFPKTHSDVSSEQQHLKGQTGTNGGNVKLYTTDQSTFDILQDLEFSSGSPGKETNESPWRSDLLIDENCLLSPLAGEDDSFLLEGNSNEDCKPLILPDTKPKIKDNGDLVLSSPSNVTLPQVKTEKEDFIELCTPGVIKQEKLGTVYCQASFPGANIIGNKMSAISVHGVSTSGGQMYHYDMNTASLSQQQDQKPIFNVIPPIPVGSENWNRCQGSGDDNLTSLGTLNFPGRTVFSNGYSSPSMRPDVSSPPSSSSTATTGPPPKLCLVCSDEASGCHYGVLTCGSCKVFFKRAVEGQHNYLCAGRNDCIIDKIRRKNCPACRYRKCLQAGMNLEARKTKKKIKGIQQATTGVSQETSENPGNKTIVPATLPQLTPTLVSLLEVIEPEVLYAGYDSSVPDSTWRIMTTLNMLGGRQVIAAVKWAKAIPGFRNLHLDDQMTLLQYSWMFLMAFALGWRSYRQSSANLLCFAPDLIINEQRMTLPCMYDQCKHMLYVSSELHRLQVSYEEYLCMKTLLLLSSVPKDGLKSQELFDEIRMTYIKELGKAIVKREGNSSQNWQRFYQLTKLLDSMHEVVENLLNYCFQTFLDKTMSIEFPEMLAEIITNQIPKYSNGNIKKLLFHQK
Method in brief: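 Readout is luciferase from a modified MMTV LTR promoter after 24 h compound exposure alongside 10 nM dexamethasone (100% activity reference), DMSO ≤1%.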

[2] = target: T1, human GR; test: Transrepression Assay (GITAR), TNFα-β-lactamase reporter in U937 cells; type: cell-based; parameters: U937 cells contain an endogenous glucocorticoid receptor (GR); endogenous in cells; host or cells: U937 cells stably transfected with the TNF-alpha promoter/beta-lactamase reporter; settings: for GITAR > GRAMM % SEP: GITAR Emax minus GRAMMER Emax; for EC50: U937 cells, inflection point, read-out: Transrepression U937 Cells GITAR IP
Method in brief: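 Stable TNF-α-promoter/β-lactamase U937 line, endogenous GR; 50,000 cells/well. Cmpd 30–45 min 37 °C → PMA 5 ng/ml + LPS 100 ng/ml final, 37 °C ~18 hr → CCF2-AM 70–90 min RT. 100 nM dex = 100%.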

[3] = U-937, U937 cells, maximum activity, read-out: Transrepression U937 Cells GITAR Emax
[4] = U-937, activity repressed by 100 nM dexamethasone alone set as 100%, read-out: maximal activity in the transrepression (GITAR) assay

SMILES | Emax [1] [%] | EC50 [1] [nM] | GITAR > GRAMM % SEP [2] [%] | EC50 [2] [nM] | Emax [2, 3] [%] | Emax [2, 4] [%]
C[C@]12Cc3cnn(-c4ccc(F)cc4)c3C=C1CC[C@@H]2CN(CCc1ccccn1)S(=O)(=O)Cc1ccccc1C(F)(F)F [Example 153, N-{[(4αR,5S)-1-(4-fluorophenyl)-4α-methyl-1,4,4α,5,6,7-hexahydrocyclopenta[f]indazol-5-yl]methyl}-N-(2-pyridin-2-ylethyl)-1-[2-(trifluoromethyl)phenyl]methanesulfonamide] | 15.2 | 315 | 37.2 | 263 | 52.4 | > 5
C[C@]12Cc3cnn(-c4ccc(F)cc4)c3C=C1CC[C@@H]2CN(CC(O)C(F)F)S(=O)(=O)Cc1cccnc1 (stereo partly drawn) [Example 154, N-(3,3-difluoro-2-hydroxypropyl)-N-{[(4αR,5S)-1-(4-fluorophenyl)-4α-methyl-1,4,4α,5,6,7-hexahydrocyclopenta[f]indazol-5-yl]methyl}-1-pyridin-3-ylmethanesulfonamide] | 17.9 | 509 | 48.7 | 616 | 66.5 | > 5
CCCS(=O)(=O)N(CC(O)C(F)F)C[C@H]1CCC2=Cc3c(cnn3-c3ccc(F)cc3)C[C@@]21C (stereo partly drawn) [Example 155, N-(3,3-difluoro-2-hydroxypropyl)-N-{[(4αR,5S)-1-(4-fluorophenyl)-4α-methyl-1,4,4α,5,6,7-hexahydrocyclopenta[f]indazol-5-yl]methyl}propane-1-sulfonamide] | 29 | 989 | 32.2 | 1090 | 61.3 | > 5
Cn1cc(S(=O)(=O)N(CC(O)C(F)F)C[C@H]2CCC3=Cc4c(cnn4-c4ccc(F)cc4)C[C@@]32C)c(C(F)(F)F)n1 (stereo partly drawn) [Example 156, N-(3,3-difluoro-2-hydroxypropyl)-N-{[(4αR,5S)-1-(4-fluorophenyl)-4α-methyl-1,4,4α,5,6,7-hexahydrocyclopenta[f]indazol-5-yl]methyl}-1-methyl-3-(trifluoromethyl)-1H-pyrazole-4-sulfonamide] | 4.5 | 193 | 15.0 | 229 | 19.5 | > 5
Cn1cc(S(=O)(=O)N(CC(O)c2ccccn2)C[C@H]2CCC3=Cc4c(cnn4-c4ccc(F)cc4)C[C@@]32C)c(C(F)(F)F)n1 (stereo partly drawn) [Example 157, N-{[(4αR,5S)-1-(4-fluorophenyl)-4α-methyl-1,4,4α,5,6,7-hexahydrocyclopenta[f]indazol-5-yl]methyl}-N-(2-hydroxy-2-pyridin-2-ylethyl)-1-methyl-3-(trifluoromethyl)-1H-pyrazole-4-sulfonamide] | 63.6 | 124 | 30.0 | 29.1 | 93.6 | > 5
C[C@]12Cc3cnn(-c4ccc(F)cc4)c3C=C1CC[C@@H]2CN(CC=O)S(=O)(=O)c1ccccc1F [Example 158, 2-fluoro-N-{[(4αR,5S)-1-(4-fluorophenyl)-4α-methyl-1,4,4α,5,6,7-hexahydrocyclopenta[f]indazol-5-yl]methyl}-N-(2-oxoethyl)benzenesulfonamide] | 36.2 | 747 | 41.6 | 564 | 77.8 | > 5
COC(=O)c1ccccc1CCN(C[C@H]1CCC2=Cc3c(cnn3-c3ccc(F)cc3)C[C@@]21C)S(=O)(=O)CC(F)(F)F [Example 159, methyl 2-(2-{{[(4αR,5S)-1-(4-fluorophenyl)-4α-methyl-1,4,4α,5,6,7-hexahydrocyclopenta[f]indazol-5-yl]methyl}[(2,2,2-trifluoroethyl)sulfonyl]amino}ethyl)benzoate] | 28.9 | 367 | 5.2 | 551 | 34.1 | > 5
COC(=O)c1cc(Cl)ccc1CCN(C[C@H]1CCC2=Cc3c(cnn3-c3ccc(F)cc3)C[C@@]21C)S(=O)(=O)CC(F)(F)F [Example 160, methyl 5-chloro-2-(2-{{[(4αR,5S)-1-(4-fluorophenyl)-4α-methyl-1,4,4α,5,6,7-hexahydrocyclopenta[f]indazol-5-yl]methyl}[(2,2,2-trifluoroethyl)sulfonyl]amino}ethyl)benzoate] | 4.3 | 547 | 10.8 | 508 | 15.1 | > 5
Cc1noc(C)c1S(=O)(=O)NC[C@H]1CCC2=Cc3c(cnn3-c3ccc(F)cc3)C[C@@]21C [Example 161, N-{[(4αR,5S)-1-(4-fluorophenyl)-4α-methyl-1,4,4α,5,6,7-hexahydrocyclopenta[f]indazol-5-yl]methyl}-3,5-dimethylisoxazole-4-sulfonamide] | 18.3 | 419 | 26.7 | 930 | 45 | > 5
COC(=O)c1ccccc1CS(=O)(=O)N(CC(O)C(F)(F)F)C[C@H]1CCC2=Cc3c(cnn3-c3ccc(F)cc3)C[C@@]21C (stereo partly drawn) [Example 162, methyl 2-({[{[(4αR,5S)-1-(4-fluorophenyl)-4α-methyl-1,4,4α,5,6,7-hexahydrocyclopenta[f]indazol-5-yl]methyl}(3,3,3-trifluoro-2-hydroxypropyl)amino]sulfonyl}methyl)benzoate] | 87.1 | 323 | 3.7 | 202 | 90.8 | > 5
C[C@]12Cc3cnn(-c4ccc(F)cc4)c3C=C1CC[C@@H]2CN(CCc1ccccc1CO)S(=O)(=O)CC(F)(F)F [Example 163, 2,2,2-trifluoro-N-{[(4αR,5S)-1-(4-fluorophenyl)-4α-methyl-1,4,4α,5,6,7-hexahydrocyclopenta[f]indazol-5-yl]methyl}-N-{2-[2-(hydroxymethyl)phenyl]ethyl}ethanesulfonamide] | 48.4 | 241 | 38.6 | 342 | 86.9 | > 5
C[C@]12Cc3cnn(-c4ccc(F)cc4)c3C=C1CC[C@@H]2CN(CC(O)C(F)(F)F)S(=O)(=O)Cc1ccccc1C(=O)O (stereo partly drawn) [Example 164, 2-({[{[(4αR,5S)-1-(4-fluorophenyl)-4α-methyl-1,4,4α,5,6,7-hexahydrocyclopenta[f]indazol-5-yl]methyl}(3,3,3-trifluoro-2-hydroxypropyl)amino]sulfonyl}methyl)benzoic acid] | 58.3 | 1080 | 23.0 | 1250 | 81.3 | > 5
C[C@]12Cc3cnn(-c4ccc(F)cc4)c3C=C1CC[C@@H]2CN(CCc1ccccn1)S(=O)(=O)Cc1ccccn1 [Example 165, N-{[(4αR,5S)-1-(4-fluorophenyl)-4α-methyl-1,4,4α,5,6,7-hexahydrocyclopenta[f]indazol-5-yl]methyl}-1-pyridin-2-yl-N-(2-pyridin-2-ylethyl)methanesulfonamide] | 37.8 | 306 | 23.4 | 286 | 61.1 | > 5
C[C@]12Cc3cnn(-c4ccc(F)cc4)c3C=C1CC[C@@H]2CN(CCc1ccccn1)S(=O)(=O)Cc1ccncc1 [Example 166, N-{[(4αR,5S)-1-(4-fluorophenyl)-4α-methyl-1,4,4α,5,6,7-hexahydrocyclopenta[f]indazol-5-yl]methyl}-1-pyridin-4-yl-N-(2-pyridin-2-ylethyl)methanesulfonamide] | 56.4 | 303 | 15.3 | 549 | 71.7 | > 5
